From patent US20250041433A1, “PROTEIN-ANTIVIRAL COMPOUND CONJUGATES” (REGENERON PHARMACEUTICALS, INC., priority 2021, published 2025)
pIC50: −log10 of the molar value.

Test system: H1N1 A/Puerto Rico/08/1934-GFP influenza virus
Experiment: organism not typed
Assay type: cell-based, H1N1 A/Puerto Rico/08/1934 influenza virus
Conditions: for pIC50: MDCK, 20 h, read-out: Antiviral activity of VX-787 free payloads IC50; for antiviral activity of VX-787 derivatives (in words): free payloads

SMILES	pIC50	antiviral activity of VX-787 derivatives (in words)
O=C(O)[C@H]1C2CCC(CC2)[C@@H]1Nc1nc(-c2c(CO)[nH]c3ncc(F)cc23)ncc1F [Compound 15]	6.62	displayed antiviral activity
O=C(NO)[C@H]1C2CCC(CC2)[C@@H]1Nc1nc(-c2c[nH]c3ncc(F)cc23)ncc1F [Compound 20a]	8.42	displayed antiviral activity
O=C(NO)[C@H]1C2CCC(CC2)[C@@H]1Nc1nc(-c2c[nH]c3ncc(F)cc23)nc2sccc12 [Compound 20b]	8.02	displayed antiviral activity
Cn1ccc2c(N[C@H]3C4CCC(CC4)[C@@H]3C(=O)NO)nc(-c3c[nH]c4ncc(F)cc34)nc21 [Compound 20c]	7.86	displayed antiviral activity
O=C(NO)[C@H]1C2CCC(CC2)[C@@H]1Nc1nc(-c2n[nH]c3ncc(F)cc23)ncc1F [Compound 57]	8.70	–
O=C(NO)[C@H]1C2CCC(CC2)[C@@H]1Nc1nc(-c2n[nH]c3ncc(F)cc23)nc2sccc12 [Compound 62]	8.66	–
